Assay results published in PubChem BioAssay AID381 (SGCOxCompounds, 2006).

Each compound was assayed against Aldo-keto reductase family 1 member C4 (Homo sapiens) (UniProt P17516) (assay: ligand-induced stabilization of human AKR1C4 – biophysical, DSF, SYPRO orange, with or without NADPH (AID 381)). Conditions: recombinant AKR1C4, DSF thermal shift, at 10 µM, buffer 10 mM HEPES, NaCl 150 mM, pH 7.5, protein 2 µM, active compounds read high.
Aldo-keto reductase family 1 member C4 (Homo sapiens), sequence (P17516 whole entry, looked up): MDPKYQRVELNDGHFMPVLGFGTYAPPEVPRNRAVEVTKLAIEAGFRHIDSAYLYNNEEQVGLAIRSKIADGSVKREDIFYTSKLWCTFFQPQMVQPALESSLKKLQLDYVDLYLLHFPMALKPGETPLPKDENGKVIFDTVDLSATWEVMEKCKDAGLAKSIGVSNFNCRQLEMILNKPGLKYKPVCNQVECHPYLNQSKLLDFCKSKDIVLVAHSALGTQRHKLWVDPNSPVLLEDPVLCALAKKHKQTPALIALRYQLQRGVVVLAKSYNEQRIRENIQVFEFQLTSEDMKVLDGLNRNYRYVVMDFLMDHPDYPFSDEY

`O=c1cc(-c2ccccc2)oc2cc(O)c(O)c(O)c12` gave a Tm shift of 3.5 Celsius.

Same assay, conditions: recombinant AKR1C4, DSF thermal shift, at 10 µM, buffer 10 mM HEPES, pH 7.5, NaCl 150 mM, NADPH 20 µM, protein 2 µM, active compounds read high

Compared with `Oc1cc(Cl)ccc1Oc1ccc(Cl)cc1Cl`, `C[C@]12CC[C@H]3C(=CCc4cc(O)ccc43)[C@@H]1CCC2=O` is higher in Tm shift: 2.3 Celsius for the first, 4.5 Celsius for the second.

First: C[C@]12CC[C@H]3[C@@H](CCC4=CC(=O)CC[C@@]43C)[C@@H]1CC[C@@H]2O
Second: CC(=O)[C@H]1CC[C@H]2[C@@H]3CCC4=CC(=O)CC[C@]4(C)[C@H]3CC[C@]12C
The Tm shift of the first is higher: 5.3 Celsius for the first, 4.5 Celsius for the second.

Same assay, conditions: recombinant AKR1C4, DSF thermal shift, at 10 µM, buffer 10 mM HEPES, pH 7.5, NaCl 150 mM, protein 2 µM, active compounds read high

First: CC1(C)[C@@H](O)CC[C@]2(C)[C@H]3C(=O)C=C4[C@H]5C[C@@](C)(C(=O)O)CC[C@]5(C)CC[C@@]4(C)[C@]3(C)CC[C@@H]12
Second: CC1(C)[C@@H](O)CC[C@]2(C)[C@H]3C(=O)C=C4[C@@H]5C[C@@](C)(C(=O)O)CC[C@]5(C)CC[C@@]4(C)[C@]3(C)CC[C@@H]12
The Tm shift of the first is higher: 5.2 Celsius for the first, 5 Celsius for the second.

Going from `O=C1C(=O)C(c2ccc(O)cc2O)Oc2cc(O)cc(O)c21` (configuration not stated) to `O=c1cc(-c2ccc(O)cc2)oc2cc(O)cc(O)c12`, the Tm shift rises from 2.1 Celsius to 2.2 Celsius.

Compared with `CC1CC(C)(C)NC(=S)N1CCCC(=O)N1CCN(C(c2ccccc2)c2ccc(Cl)cc2)CC1` (configuration not stated), `O=c1cc(-c2ccccc2)oc2cc(O)cc(O)c12` is lower in Tm shift: 2.4 Celsius for the first, 2.3 Celsius for the second.

With `CC1(C)[C@@H](OC(=O)CCC(=O)O)CC[C@]2(C)[C@H]3C(=O)C=C4[C@@H]5C[C@@](C)(C(=O)O)CC[C@]5(C)CC[C@@]4(C)[C@]3(C)CC[C@@H]12` the Tm shift was 7.3 Celsius.
